{"source": "patent US8778925B2", "about": "“Pyridine and pyrimidine based compounds as Wnt signaling pathway inhibitors for the treatment of cancer” (Cancer Research Technology Ltd., priority 2008, dated 2014)"}
{"tested_on": "Wnt pathway", "assay": "Luciferase reporter cell based assay (ER-DSH HEK293 cells)", "conditions": "Homo sapiens, TCF-dependent transcription induced by estrogen (2 μM), reporter activity at 24 hours, read-out: IC50 in Luciferase reporter assay (ER-DSH HEK293 cells) assay described in Example 92", "method": "Inhibitory activity of the Wnt pathway was assessed using a luciferase reporter cell based assay. A luciferase reporter cell line was developed in HEK293 cells, which contained an estrogen receptor-DSH (ER-DSH) construct and a TCF-luciferase-IRES-GFP construct.\nA high-throughput assay was performed by inducing TCF-dependent transcription in the ER-DSH HEK293 cell line by the addition of estrogen (2 μM) resulting in at least a 14-fold increase in reporter activity measured at 24 hours. […]", "units": {"IC50": "µM"}}
{"smiles": "CNC(=O)C1CCN(c2c(Cl)cncc2Cl)CC1", "note": "[Example E1, 1-(3,5-dichloropyridin-4-yl)-N-methylpiperidine-4-carboxamide]", "IC50": 12.6}
{"smiles": "CN(C)C(=O)C1CCN(c2c(Cl)cncc2Cl)CC1", "note": "[Example E2, 1-(3,5-dichloropyridin-4-yl)-N,N-dimethylpiperidine-4-carboxamide]", "IC50": 30}
{"smiles": "COc1ccc(-c2cncc(Cl)c2N2CCC(C(N)=O)CC2)cc1OC", "note": "[Example E4, 1-(3-chloro-5-(3,4-dimethoxyphenyl)pyridin-4-yl)piperidine-4-carboxamide]", "IC50": 0.17}
{"smiles": "CC(=O)N1CCN(c2c(Cl)cncc2Cl)CC1", "note": "[Example E9, 1-(4-(3,5-dichloropyridin-4-yl)piperazin-1-yl)ethanone]", "IC50": 12.1}
{"smiles": "NC(=O)C1CCN(c2ccncc2Cl)CC1", "note": "[Example E12, 1-(3-chloropyridin-4-yl)piperidine-4-carboxamide]", "IC50": 22.9}
{"smiles": "NCCNC(=O)C1CCN(c2c(Cl)cncc2Cl)CC1", "note": "[Example E13, N-(2-aminoethyl)-1-(3,5-dichloropyridin-4-yl)piperidine-4-carboxamide]", "IC50": 7}
{"smiles": "NC(=O)C1CCN(c2c(Cl)cncc2Cl)C1", "note": "(stereo not shown) [Example E21, 1-(3,5-dichloropyridin-4-yl)pyrrolidine-3-carboxamide]", "IC50": 0.76}
{"smiles": "NC(=O)C1CCN(c2c(Br)cncc2Br)CC1", "note": "[Example E27, 1-(3,5-dibromopyridin-4-yl)piperidine-4-carboxamide]", "IC50": 0.21}
{"smiles": "NC(=O)C1CCN(c2ncncc2Br)CC1", "note": "[Example E29, 1-(5-bromopyrimidin-4-yl)piperidine-4-carboxamide]", "IC50": 16.2}
{"smiles": "NC(=O)C1CCN(c2ncncc2-c2ccccc2)CC1", "note": "[Example E33, 1-(5-phenylpyrimidin-4-yl)piperidine-4-carboxamide]", "IC50": 5}
{"smiles": "Clc1cncc(Cl)c1N1CCC(c2ncco2)CC1", "note": "[Example E35, 2-(1-(3,5-dichloropyridin-4-yl)piperidin-4-yl)oxazole]", "IC50": 7.66}
{"smiles": "COc1ccc(-c2cnccc2N2CCC(C(N)=O)CC2)cc1", "note": "[Example E37, 1-(3-(4-methoxyphenyl)pyridin-4-yl)piperidine-4-carboxamide]", "IC50": 1.64}
{"smiles": "COc1ccc(-c2cncc(Cl)c2N2CCC(C(N)=O)CC2)cc1", "note": "[Example E43, 1-(3-chloro-5-(4-methoxyphenyl)pyridin-4-yl)piperidine-4-carboxamide]", "IC50": 0.032}
{"smiles": "Cc1nn(C)cc1-c1cncc(Cl)c1N1CCC(C(N)=O)CC1", "note": "[Example E47, 1-(3-chloro-5-(1,3-dimethyl-1H-pyrazol-4-yl)pyridin-4-yl)piperidine-4-carboxamide]", "IC50": 0.44}
{"smiles": "NC(=O)C1CCN(c2c(Cl)cncc2-c2ccc(F)cc2)CC1", "note": "[Example E50, 1-(3-chloro-5-(4-fluorophenyl)pyridin-4-yl)piperidine-4-carboxamide]", "IC50": 0.11}
{"smiles": "O=C1NCCC12CCN(c1c(Cl)cncc1Cl)CC2", "note": "[Example E59, 8-(3,5-dichloropyridin-4-yl)-2,8-diazaspiro[4.5]decan-1-one]", "IC50": 3.43}
{"smiles": "O=C1NCCC12CCN(c1c(Cl)cncc1-c1ccccc1)CC2", "note": "[Example E60, 8-(3-chloro-5-phenylpyridin-4-yl)-2,8-diazaspiro[4.5]decan-1-one]", "IC50": 0.033}
{"smiles": "NC(=O)C1CCN(c2c(Cl)cncc2-c2ccncc2)CC1", "note": "[Example E65, 1-(5-chloro-3,4′-bipyridin-4-yl)piperidine-4-carboxamide]", "IC50": 0.44}
{"smiles": "NC(=O)C1CCN(c2ccncc2-c2ccccc2)CC1", "note": "[Example E68, 1-(3-phenylpyridin-4-yl)piperidine-4-carboxamide]", "IC50": 1.15}
{"smiles": "COc1ccc(-c2cncc(Cl)c2N2CCC(C(N)=O)C2)cc1", "note": "(stereo not shown) [Example E74, 1-(3-chloro-5-(4-methoxyphenyl)pyridin-4-yl)pyrrolidine-3-carboxamide]", "IC50": 0.26}
{"smiles": "COc1ccc(-c2cncnc2N2CCC(C(N)=O)CC2)cc1", "note": "[Example E85, 1-(5-(4-methoxyphenyl)pyrimidin-4-yl)piperidine-4-carboxamide]", "IC50": 1.58}
{"smiles": "N#CC1CCN(c2c(Cl)cncc2-c2ccccc2)CC1", "note": "[Example E86, 1-(3-chloro-5-phenylpyridin-4-yl)piperidine-4-carbonitrile]", "IC50": 0.09}
{"smiles": "O=C(O)C1CCN(c2c(Cl)cncc2-c2ccccc2)CC1", "note": "[Example E87, 1-(3-chloro-5-phenylpyridin-4-yl)piperidine-4-carboxylic acid]", "IC50": 0.74}
{"tested_on": "not given", "assay": "not given", "conditions": "not given", "units": {"melting point": "°C"}}
{"smiles": "NC(=O)C1CCN(c2ncncc2Cl)CC1", "melting point": "201 to 202"}
{"smiles": "Cc1cncnc1N1CCC(C(N)=O)CC1", "melting point": "182 to 184"}
{"smiles": "O=C(c1ccccc1)N1CCN(c2c(Cl)cncc2Cl)CC1", "melting point": "132 to 134"}
{"smiles": "O=C(NCCNc1c(Cl)cncc1Cl)C1CCN(c2c(Cl)cncc2Cl)CC1", "note": "[Example E5, 1-(3,5-dichloropyridin-4-yl)-N-(2-(3,5-dichloropyridin-4-ylamino)ethyl)piperidine-4-carboxamide]", "melting point": "157 to 159"}
{"smiles": "CC(=O)N1CCN(c2c(Cl)cncc2Cl)CC1", "note": "[Example E9, 1-(4-(3,5-dichloropyridin-4-yl)piperazin-1-yl)ethanone]", "melting point": "144 to 146"}
{"smiles": "O=C(NCCNCC1CCCCC1)C1CCN(c2c(Cl)cncc2Cl)CC1", "note": "[Example E16, N-(2-(cyclohexylmethylamino)ethyl)-1-(3,5-dichloropyridin-4-yl)piperidine-4-carboxamide]", "melting point": "174 to 177"}
{"smiles": "O=C(NCCN(Cc1ccccc1)Cc1ccccc1)C1CCN(c2c(Cl)cncc2Cl)CC1", "note": "[Example E17, N-(2-(dibenzylamino)ethyl)-1-(3,5-dichloropyridin-4-yl)piperidine-4-carboxamide]", "melting point": "147 to 149"}
{"smiles": "O=C(NCCN(CC1CCCCC1)CC1CCCCC1)C1CCN(c2c(Cl)cncc2Cl)CC1", "note": "[Example E18, N-(2-(bis(cyclohexylmethyl)amino)ethyl)-1-(3,5-dichloropyridin-4-yl)piperidine-4-carboxamide]", "melting point": "236 to 238"}
{"smiles": "O=C(NCCNC(=O)C1CCN(c2c(Cl)cncc2Cl)CC1)c1ccccc1", "note": "[Example E19, N-(2-benzamidoethyl)-1-(3,5-dichloropyridin-4-yl)piperidine-4-carboxamide]", "melting point": "209 to 211"}
{"smiles": "O=C(C1CCN(c2c(Cl)cncc2Cl)CC1)N1CCNCC1", "note": "[Example E20, (1-(3,5-dichloropyridin-4-yl)piperidin-4-yl)(piperazin-1-yl)methanone]", "melting point": "256 to 258"}
{"smiles": "NC(=O)C1CCN(c2c(Cl)cncc2Cl)C1", "note": "(stereo not shown) [Example E21, 1-(3,5-dichloropyridin-4-yl)pyrrolidine-3-carboxamide]", "melting point": "161 to 163"}
{"smiles": "N#CC1CCN(c2c(Br)cncc2Br)C1", "note": "(stereo not shown) [Example E23, 1-(3,5-dibromopyridin-4-yl)pyrrolidine-3-carbonitrile]", "melting point": "159 to 161"}
{"smiles": "NC(=O)C1CCN(c2ncncc2Br)CC1", "note": "[Example E29, 1-(5-bromopyrimidin-4-yl)piperidine-4-carboxamide]", "melting point": "188 to 190"}
{"smiles": "NC(=O)C1CCN(c2c(Br)cncc2-c2ccccc2)CC1", "note": "[Example E39, 1-(3-bromo-5-phenylpyridin-4-yl)piperidine-4-carboxamide]", "melting point": "220 to 222"}
